Reference: US6623933B1 (priority 1999, dated 2003)
Like-named read-outs stand apart in the source and are kept apart here.

Columns and labels:
NR1100/NR2A = NR1100/NR2A (Rattus norvegicus, UniProt P35439+Q00959); set-up: agonist nHill / agonist Emax: dose or concentration left out as unconfirmed; conditions: NR1100/NR2A
NR1101/NR2A = NR1101/NR2A (Rattus norvegicus, UniProt P35439+Q00959); set-up: agonist Emax: dose or concentration left out as unconfirmed; conditions: NR1101/NR2A
NR1111/NR2A = NR1111/NR2A (Rattus norvegicus, UniProt P35439+Q00959); set-up: agonist Emax: dose or concentration left out as unconfirmed; conditions: NR1111/NR2A
NR1/NR2C (NR1100) = NR1/NR2C (NR1100) (Rattus norvegicus, UniProt P35439+Q00961); conditions: NR1/NR2C; for EC50: read-out: agonist EC50
From the text: (§5) Plasmids containing the NR1100 (NR1G) and NR2A cDNA inserts were kindly provided by Dr. Nakanishi (Kyoto University Faculty of Medicine, Kyoto, Japan). Plasmids containing the NR2B, NR2C and NR2D cDNA inserts were kindly provided by Dr. P. Seeburg (Heidelberg University, Heidelberg, Germany). Plasmids were linearized with appropriate restriction enzyme prior to in vitro transcription using the Message Machine kit (Ambion, Inc., Austin, Tex.).
(§6) Female, oocyte-positive Xenopus laevis frogs were purchased from Xenopus I (Dexter, Mich.). […] Oocytes were injected with 50 nL of RNA solutions using an electronic microinjector (Drummond Inc., Broomall, Pa.). […] The injected oocytes were used for experiments following 1-5 days of incubation in Barth's solution at 18-20° C.
(§7) The microelectrodes were fabricated from borosilicate glass capillaries with a programmed puller (Sutter Instrument Co., Calif.). Microelectrode resistance was 1-3 MΩ_when filled with 3 M KCl.
(§8) Except where otherwise stated, oocytes were clamped at a holding potential of −70 mV during data acquisition. The membrane current was filtered at 500 Hz and sampled at 100 Hz. Drugs were applied using a gravity-driven external perfusion system. The working volume of the recording chamber was 30 μl and the rate of the perfusion was 50 μl/sec. The drug application lasted 10 sec and was followed by 60 s wash. Data acquisition and external perfusion were controlled using custom-written software implemented in the SuperScope II development environment (GW Instruments, Mass.). All experiments were performed at room temperature of 22-24° C. Peak or steady-state current measurements were normalized and expressed as a fraction of the peak or steady-state control current measurements, which were performed before and after application of every single concentration of agonists or steroids.
(§9) Concentration-response data were analyzed by nonlinear regress ion using the logistic equation Response=Emax/(1+(EC50/c)^nH), where c is concentration, Emaxis the maximum response, nHis the Hill coefficient. The data are presented as mean±SEM. EC50values are averaged as logarithms (De Lean et al., Am. J. Physiol. 235: E97-E102 (1978))±the SEM of the log EC50. […] The pooled data were simultaneously fitted to the logistic equation, either with Emax and EC50 constrained to be identical in the presence and absence of PS, or allowing one or both to vary independently. […] This was regarded as indicating a significant treatment effect of PS, but the change in EC50and Emaxwas not considered significant. […] No attempt was made to test the generally small changes in nHfor statistical significance.

NR1000/NR2A = NR1000/NR2A (Rattus norvegicus, UniProt P35439+Q00959); set-up: agonist Emax: dose or concentration left out as unconfirmed; conditions: NR1000/NR2A
NR1011/NR2A = NR1011/NR2A (Rattus norvegicus, UniProt P35439+Q00959); set-up: agonist Emax: dose or concentration left out as unconfirmed; conditions: NR1011/NR2A
NR1011/NR2A, sequence (Q00959 23-1464, other chains not shown): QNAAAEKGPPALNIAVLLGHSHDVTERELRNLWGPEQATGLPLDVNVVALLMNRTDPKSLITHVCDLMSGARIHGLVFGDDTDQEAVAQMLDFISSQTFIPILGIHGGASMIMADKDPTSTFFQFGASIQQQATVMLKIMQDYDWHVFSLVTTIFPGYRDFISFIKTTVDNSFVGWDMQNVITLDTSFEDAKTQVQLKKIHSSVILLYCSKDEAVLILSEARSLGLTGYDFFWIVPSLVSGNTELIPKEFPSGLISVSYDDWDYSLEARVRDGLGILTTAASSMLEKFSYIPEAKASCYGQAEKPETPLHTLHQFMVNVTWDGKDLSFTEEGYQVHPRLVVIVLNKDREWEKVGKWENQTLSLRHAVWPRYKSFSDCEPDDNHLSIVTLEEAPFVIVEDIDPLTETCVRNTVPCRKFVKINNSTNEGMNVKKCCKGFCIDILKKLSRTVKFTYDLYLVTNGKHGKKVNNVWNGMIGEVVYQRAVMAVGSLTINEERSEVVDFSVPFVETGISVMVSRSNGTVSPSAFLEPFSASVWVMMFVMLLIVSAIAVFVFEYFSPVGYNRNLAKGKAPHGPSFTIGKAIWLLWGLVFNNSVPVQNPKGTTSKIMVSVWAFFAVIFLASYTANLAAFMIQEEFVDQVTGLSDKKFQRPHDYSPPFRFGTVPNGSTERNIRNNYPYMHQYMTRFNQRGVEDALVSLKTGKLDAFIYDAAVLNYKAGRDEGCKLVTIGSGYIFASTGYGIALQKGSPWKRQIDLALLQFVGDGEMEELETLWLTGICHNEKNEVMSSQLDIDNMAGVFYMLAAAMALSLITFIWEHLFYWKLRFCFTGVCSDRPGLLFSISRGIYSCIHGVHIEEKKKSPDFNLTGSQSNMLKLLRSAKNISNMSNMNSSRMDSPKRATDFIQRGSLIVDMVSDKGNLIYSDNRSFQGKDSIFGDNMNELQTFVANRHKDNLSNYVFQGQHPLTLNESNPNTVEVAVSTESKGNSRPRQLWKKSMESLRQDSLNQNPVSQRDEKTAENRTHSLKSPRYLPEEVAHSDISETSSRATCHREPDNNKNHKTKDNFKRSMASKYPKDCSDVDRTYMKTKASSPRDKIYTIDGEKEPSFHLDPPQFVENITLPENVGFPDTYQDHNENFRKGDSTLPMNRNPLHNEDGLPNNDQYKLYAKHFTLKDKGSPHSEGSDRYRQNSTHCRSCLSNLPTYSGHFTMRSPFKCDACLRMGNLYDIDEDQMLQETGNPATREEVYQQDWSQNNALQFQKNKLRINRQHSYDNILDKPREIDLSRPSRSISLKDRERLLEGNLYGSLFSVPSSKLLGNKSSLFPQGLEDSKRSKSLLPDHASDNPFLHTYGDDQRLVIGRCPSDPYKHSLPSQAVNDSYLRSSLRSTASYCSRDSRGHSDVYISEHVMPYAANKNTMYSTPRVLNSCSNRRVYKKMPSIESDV

NR1/NR2B (NR1100) = NR1/NR2B (NR1100) (Rattus norvegicus, UniProt P35439+Q00960)
From the text: as §5, §6, §7, §8, §9

NR1001/NR2A = NR1001/NR2A (Rattus norvegicus, UniProt P35439+Q00959); set-up: agonist Emax: dose or concentration left out as unconfirmed; conditions: NR1001/NR2A
NR1/NR2D (NR1100) = NR1/NR2D (NR1100) (Rattus norvegicus, UniProt P35439+Q62645)
NR1/NR2D (NR1100), sequence (Q62645 28-1323, other chains not shown): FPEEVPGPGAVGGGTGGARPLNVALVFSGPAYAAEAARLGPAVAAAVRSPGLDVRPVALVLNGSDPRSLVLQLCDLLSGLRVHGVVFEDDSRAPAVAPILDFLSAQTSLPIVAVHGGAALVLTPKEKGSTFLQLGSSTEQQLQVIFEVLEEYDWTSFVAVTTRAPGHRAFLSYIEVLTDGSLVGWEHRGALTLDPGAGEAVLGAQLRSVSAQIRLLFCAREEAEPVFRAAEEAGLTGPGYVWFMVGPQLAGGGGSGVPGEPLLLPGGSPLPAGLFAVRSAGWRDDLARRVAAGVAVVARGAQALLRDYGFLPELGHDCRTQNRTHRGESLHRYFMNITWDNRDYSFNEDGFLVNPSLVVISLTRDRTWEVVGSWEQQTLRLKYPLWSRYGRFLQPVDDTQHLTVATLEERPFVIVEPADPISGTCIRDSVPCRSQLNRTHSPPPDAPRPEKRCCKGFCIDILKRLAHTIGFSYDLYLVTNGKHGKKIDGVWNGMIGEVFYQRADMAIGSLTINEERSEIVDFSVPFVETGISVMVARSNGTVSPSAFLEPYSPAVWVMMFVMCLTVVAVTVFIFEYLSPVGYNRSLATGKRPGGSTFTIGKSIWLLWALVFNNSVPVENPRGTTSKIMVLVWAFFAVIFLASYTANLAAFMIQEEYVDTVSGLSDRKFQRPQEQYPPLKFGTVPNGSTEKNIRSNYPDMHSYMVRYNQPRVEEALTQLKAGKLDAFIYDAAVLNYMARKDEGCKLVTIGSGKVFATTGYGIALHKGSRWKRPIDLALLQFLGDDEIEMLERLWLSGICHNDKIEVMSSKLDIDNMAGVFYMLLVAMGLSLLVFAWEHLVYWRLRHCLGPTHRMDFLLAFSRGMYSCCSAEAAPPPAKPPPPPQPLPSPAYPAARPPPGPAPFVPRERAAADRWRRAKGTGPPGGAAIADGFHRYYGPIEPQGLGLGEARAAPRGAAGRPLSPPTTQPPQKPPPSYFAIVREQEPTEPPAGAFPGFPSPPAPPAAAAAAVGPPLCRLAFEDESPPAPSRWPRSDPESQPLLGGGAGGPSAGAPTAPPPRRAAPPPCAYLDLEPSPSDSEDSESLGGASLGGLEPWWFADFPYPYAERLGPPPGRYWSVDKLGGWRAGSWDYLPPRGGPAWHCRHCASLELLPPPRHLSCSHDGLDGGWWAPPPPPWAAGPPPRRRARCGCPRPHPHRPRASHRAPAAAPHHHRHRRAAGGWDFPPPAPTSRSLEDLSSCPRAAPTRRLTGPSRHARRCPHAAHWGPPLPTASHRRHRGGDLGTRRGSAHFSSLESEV

NR1010/NR2A = NR1010/NR2A (Rattus norvegicus, UniProt P35439+Q00959); set-up: agonist nHill / agonist Emax: dose or concentration left out as unconfirmed; conditions: NR1010/NR2A
NR1/NR2A (NR1100) = NR1/NR2A (NR1100) (Rattus norvegicus, UniProt P35439+Q00959)
NR1/NR2A (NR1100), sequence (Q00959 23-1464, other chains not shown): as the sequence (Q00959 23-1464, other chains not shown) above
From the text: as §5, §6, §7, §8, §9

GluR6 kainate receptor = target: T1, GluR6 kainate receptor (Rattus norvegicus, UniProt P42260); assay: Kainate-induced currents, Xenopus oocytes injected with GluR6 cRNA; assay type: cell-based; conditions: GluR6, steroid 100 μM; for Percentage change in kainate response: 10 μM kainate, −100 mV
T1 construct: expressed in transfected cells; host or cells: Xenopus oocytes injected with GluR6 cRNA (concanavalin A treated)
From the text: (§1) Plasmids were obtained from the following individuals: Dr. Suzanne Zukin (Albert Einstein College of Medicine, Bronx, N.Y.), NR1100; Dr. Shigetada Nakanishi (Kyoto University Faculty of Medicine, Kyoto, Japan), NR2A; Dr. Stephen Heinemann (Salk Institute, San Diego, Calif.), GluR1 (flop), GluR3 (flop), and GluR6. Plasmids were linearized with BamH1 (NR1100), XhoI (NR2A, GluR1, GluR3) or XbaI (GluR6) prior to in vitro transcription with T3 (GluR1, GluR3, GluR6) or T7 (NR1100, NR2A) RNA polymerase using the Message Machine kit (Ambion, Austin, Tex.). […] RNA solutions (50-70 nl) were injected into oocytes for delivery of NR1100 (5 ng), NR1100:NR2A (1:10 ng), GluR1 (5 ng). GluR3 (5 ng), or GluR6 (20 ng). Oocytes were incubated in ND96 at 18-20° C. for 3-7 days prior to electrophysiological recording.
(§2) Steroid solutions were prepared as 70-100 mM frozen stocks in dimethyl sulfoxide (DMSO). The final DMSO concentration of all recording solutions was between 0.1% to 0.5% and was constant within an experiment.
(§3) Perfusion control and data acquisition were carried out using an automated oocyte electrophysiology workstation that was developed for the rapid collection of concentration-response data and real-time waveform analysis (Yaghoubi et al., Soc. Neurosci. Abstr. 20: 1109 (1995)). This system is implemented on a Macintosh IIci computer (Apple Computer, Cupertino, Calif.) equipped with MacA-DIOS II data acquisition and control hardware (GW Instruments, Somerville, Mass.). Drug application is controlled by the computer through a series of valves, using custom-written software based on the SuperScope II development environment, improving the efficiency and reproducibility of data collection. Experiments were carried out using an Axoclamp-2A voltage clamp amplifier (Axon Instruments, Foster City, Calif.) in two-electrode voltage clamp mode. Intracellular microelectrodes (1-3 MΩ) were filled with 3 M KCl. […] Membrane potential was clamped at −60 to −70 mV and stepped to −100 mV at the start of data acquisition unless otherwise stated. […] Current and voltage recordings were digitized at 100 Hz for analysis. GluR6 injected oocytes were treated for 10 min with 10 μg/ml concanavalin A to prevent fast desensitization.
(§4) Results are expressed as mean±S.E.M. Statistical comparisons were made using Student's t-test.

GluR1 AMPA receptor = target: T2, GluR1 AMPA receptor (Rattus norvegicus, UniProt P19490); assay: Kainate-induced currents, Xenopus oocytes injected with GluR1 cRNA; assay type: cell-based; conditions: GluR1, steroid 100 μM; for Percentage change in kainate response: 100 μM kainate, −100 mV
T2 construct: expressed in transfected cells; host or cells: Xenopus oocytes injected with GluR1 cRNA
From the text: as §1, §2, §3, §4

GluR3 AMPA receptor = target: T3, GluR3 AMPA receptor (Rattus norvegicus, UniProt P19492); assay: Kainate-induced currents, Xenopus oocytes injected with GluR3 cRNA; assay type: cell-based; conditions: GluR3, steroid 100 μM; for Percentage change in kainate response: 100 μM kainate, −100 mV
T3 construct: expressed in transfected cells; host or cells: Xenopus oocytes injected with GluR3 cRNA
T3 sequence (P19492 23-888): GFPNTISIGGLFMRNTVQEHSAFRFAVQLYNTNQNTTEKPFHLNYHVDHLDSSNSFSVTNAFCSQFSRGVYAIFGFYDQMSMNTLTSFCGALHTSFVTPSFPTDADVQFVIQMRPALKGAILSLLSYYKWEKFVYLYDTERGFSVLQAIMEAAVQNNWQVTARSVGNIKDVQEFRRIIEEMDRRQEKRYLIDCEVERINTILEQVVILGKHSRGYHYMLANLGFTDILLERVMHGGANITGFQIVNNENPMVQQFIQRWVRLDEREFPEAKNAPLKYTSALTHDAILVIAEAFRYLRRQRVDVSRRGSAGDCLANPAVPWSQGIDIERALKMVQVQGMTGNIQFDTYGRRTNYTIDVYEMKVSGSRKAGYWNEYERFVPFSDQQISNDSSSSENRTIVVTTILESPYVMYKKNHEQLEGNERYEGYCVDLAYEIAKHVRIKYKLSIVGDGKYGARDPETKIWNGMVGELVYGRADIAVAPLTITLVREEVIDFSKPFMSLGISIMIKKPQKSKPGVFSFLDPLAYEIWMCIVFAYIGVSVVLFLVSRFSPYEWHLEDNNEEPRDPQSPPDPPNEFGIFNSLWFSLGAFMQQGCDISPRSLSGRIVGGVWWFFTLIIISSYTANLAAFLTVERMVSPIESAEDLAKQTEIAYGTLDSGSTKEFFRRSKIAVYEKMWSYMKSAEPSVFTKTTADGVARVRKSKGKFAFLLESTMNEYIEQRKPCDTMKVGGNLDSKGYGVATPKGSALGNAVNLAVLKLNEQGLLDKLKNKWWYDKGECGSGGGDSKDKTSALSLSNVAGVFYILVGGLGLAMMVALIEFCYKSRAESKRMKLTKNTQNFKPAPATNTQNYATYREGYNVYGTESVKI
From the text: as §1, §2, §3, §4

[1] = target: T4, NR1100+NR2A NMDA receptor (Rattus norvegicus, UniProt P35439+Q00959); assay: NMDA-induced currents, Xenopus oocytes, Example 1; assay type: cell-based; conditions: NR1100 + NR2A; steroid 100 μM; 100 μM NMDA; −100 mV
T4 construct: expressed in transfected cells; host or cells: Xenopus oocytes co-injected with NR1100 and NR2A cRNA
From the text: as §1, §2, §3, §4

| Molecule | agonist Emax (NR1100/NR2A; absence of PS) | agonist Emax (NR1100/NR2A; presence) | agonist nHill (NR1100/NR2A; presence) | agonist Emax (NR1101/NR2A; absence of PS) | agonist Emax (NR1101/NR2A; presence of PS) | agonist Emax (NR1111/NR2A; absence of PS) | agonist Emax (NR1111/NR2A; presence of PS) | agonist Emax (NR1/NR2C (NR1100); +100 μM PS) | agonist Emax (NR1000/NR2A; absence of PS) | agonist Emax (NR1000/NR2A; presence of PS) | agonist Emax (NR1011/NR2A; presence of PS) | agonist Emax (NR1/NR2B (NR1100); +100 μM PS) | agonist nH (NR1/NR2B (NR1100); no PS) | agonist Emax (NR1001/NR2A; absence of PS) | agonist Emax (NR1001/NR2A; presence of PS) | agonist Emax (NR1/NR2D (NR1100); +100 μM PS) | agonist Emax (NR1/NR2D (NR1100); no PS) | Percentage change in kainate response (GluR6 kainate receptor) | Percentage change in kainate response (GluR1 AMPA receptor) | Percentage change in kainate response (GluR3 AMPA receptor) | other results |
| --- | --- | --- | --- | --- | --- | --- | --- | --- | --- | --- | --- | --- | --- | --- | --- | --- | --- | --- | --- | --- | --- |
| N[C@@H](CCC(=O)O)C(=O)O [L-glutamate] | 1.50 ± 0.04 | 2.30 ± 0.21 | 0.98 ± 0.06 | 1.77 ± 0.09 | 2.72 ± 0.07 | 1.87 ± 0.12 | 2.62 ± 0.27 | 0.87 | 1.75 ± 0.02 | 2.92 ± 0.03 | 2.08 ± 0.21 | 1.34 ± 0.07 | 1.14 ± 0.10 | 2.10 ± 0.12 | 2.85 ± .26 | 0.80 | 1.10 ± 0.03 |  |  |  | agonist nHill (NR1100/NR2A; absence of PS): 1.15 ± 0.04; agonist nHill (NR1111/NR2A; absence of PS): 1.39 ± 0.02; agonist Emax (NR1/NR2C (NR1100); no PS): 1.31 ± 0.02; EC50 (NR1/NR2C (NR1100); +100 μM PS): 60 nM; EC50 (NR1/NR2C (NR1100); no PS): 75 nM; agonist Emax (NR1011/NR2A; absence of PS): 1.59 ± 0.03; agonist Emax (NR1/NR2B (NR1100); no PS): 1.23 ± 0.04; agonist nHill (NR1001/NR2A; presence of 100 mM PS): 1.57 ± 0.18; EC50 (NR1/NR2D (NR1100); read-out: agonist EC50, +100 μM PS): 37 nM; EC50 (NR1/NR2D (NR1100); read-out: agonist EC50, no PS): 25 nM; agonist Emax (NR1010/NR2A; absence of PS): 1.48 ± 0.03; agonist nHill (NR1010/NR2A; absence of PS): 1.32 ± 0.14; agonist nHill (NR1010/NR2A; presence of PS): 1.59 ± 0.15; agonist Emax (NR1/NR2A (NR1100); +100 μM PS): 2.3 ± 0.2; agonist nH (NR1/NR2A (NR1100); +100 μM PS): 0.98 ± 0.06; agonist nH (NR1/NR2A (NR1100); no PS): 1.15 ± 0.04; agonist Emax (NR1/NR2A (NR1100); no PS, normalized to 200 μM NMDA plus 10 μM glycine): 1.50 |
| C[C@]12CC[C@@H]3c4ccc(OS(=O)(=O)O)cc4CC[C@H]3[C@@H]1CC[C@H]2O [17α-Estradiol-3-sulfate] |  |  |  |  |  |  |  |  |  |  |  |  |  |  |  |  |  | −7 ± 1(5) % | −22 ± 3(3) % | −17 ± 2(3) % |  |
| C[C@]12CC[C@H](O)CC1=CC[C@@H]1[C@@H]2CC[C@]2(C)C(=O)CC[C@@H]12 [Dehydroepiandrosterone] |  |  |  |  |  |  |  |  |  |  |  |  |  |  |  |  |  | −5 ± 1(3) % | −16 ± 3(3) % | −7 ± 5(3) % |  |
| NCC(=O)O [glycine] | 1.52 ± 0.07 | 2.34 ± 0.09 | 1.03 ± 0.05 | 1.63 ± 0.04 | 2.46 ± 0.23 | 1.93 ± 0.07 | 2.68 ± 0.16 | 0.87 | 1.48 ± 0.04 | 2.88 ± 0.27 | 2.24 ± 0.29 | 1.63 ± 0.04 | 1.09 ± 0.04 | 1.89 ± 0.20 | 2.77 ± 0.40 | 0.74 | 1.22 ± 0.05 |  |  |  | agonist nH (NR1/NR2C (NR1100); +100 μM PS): 1.11 ± 0.12; agonist nHill (NR1000/NR2A; absence of PS): 0.90 ± 0.01; agonist nH (NR1/NR2B (NR1100); +100 μM PS): 1.15 ± 0.03; agonist nH (NR1/NR2D (NR1100); +100 μM PS): 0.95 ± 0.01; agonist Emax (NR1010/NR2A; absence of PS): 1.51 ± 0.07; agonist Emax (NR1010/NR2A; presence of PS): 1.92 ± 0.19; agonist nHill (NR1010/NR2A; presence of PS): 1.38 ± 0.10; agonist Emax (NR1/NR2A (NR1100); +100 μM PS): 2.34; agonist nH (NR1/NR2A (NR1100); +100 μM PS): 1.03 ± 0.05 |
| C[C@]12CC[C@@H]3c4ccc(OS(=O)(=O)O)cc4CC[C@H]3[C@@H]1CC[C@@H]2O [17β-Estradiol-3-sulfate] |  |  |  |  |  |  |  |  |  |  |  |  |  |  |  |  |  | −13 ± 4(4) % | −2 ± 2(3) % | −8 ± 4(3) % | inhibition of the response to kainate (GluR6 kainate receptor): 12%; inhibition of the response to kainate (GluR1 AMPA receptor): no effect; Percentage change in NMDA response [1]: +12 ± 3(4) %; inhibition of the response to kainate (GluR3 AMPA receptor): no effect |
| Dehydroepiandrosterone sulfate |  |  |  |  |  |  |  |  |  |  |  |  |  |  |  |  |  | −17 ± 5(3) % | −23 ± 3(3) % | −7 ± 1(4) % | Percentage change in NMDA response [1]: +8 ± 13(3) % |
